Data as given in article PMC6151695, “Novel Selective Estrogen Receptor Ligand Conjugates Incorporating Endoxifen-Combretastatin and Cyclofenil-Combretastatin Hybrid Scaffolds: Synthesis and Biochemical Evaluation” (Molecules : A Journal of Synthetic Chemistry and Natural …, 2017).
Marks after values point to notes of the source that are not given here.

Legend:
MALME-3M = assay: NCI60 in vitro screen, Melanoma; type: cell-based, human
NCI-H552 = assay: NCI60 in vitro screen, Non-Small Cell Lung Cancer; type: cell-based, human
K-562 = assay: NCI60 in vitro screen, Leukemia; type: cell-based, human
DU-145 = assay: NCI60 in vitro screen, Prostate cancer; type: cell-based, human
CCRF-CEM = assay: NCI60 in vitro screen, Leukemia; type: cell-based, human
UACC-257 = assay: NCI60 in vitro screen, Melanoma; type: cell-based, human
NCI-H23 = assay: NCI60 in vitro screen, Non-Small Cell Lung Cancer; type: cell-based, human
SN12C = assay: NCI60 in vitro screen, Renal cancer; type: cell-based, human
NCI-H460 = assay: NCI60 in vitro screen, Non-Small Cell Lung Cancer; type: cell-based, human
in vitro = conditions: human
MOLT-4 = assay: NCI60 in vitro screen, Leukemia; type: cell-based, human
MCF-7 [1] = assay: cells; conditions: Homo sapiens
MCF-7 cells = conditions: human
HCT-116 = assay: NCI60 in vitro screen, Colon Cancer; type: cell-based, human
EKVX = assay: NCI60 in vitro screen, Non-Small Cell Lung Cancer; type: cell-based, human
SNB-19 = assay: NCI60 in vitro screen, CNS Cancer; type: cell-based, human
SF539 = assay: NCI60 in vitro screen, CNS Cancer; type: cell-based, human
NCI-H226 = assay: NCI60 in vitro screen, Non-Small Cell Lung Cancer; type: cell-based, human
TK-10 = assay: NCI60 in vitro screen, Renal cancer; type: cell-based, human
IGROV1 = assay: NCI60 in vitro screen, Ovarian cancer; type: cell-based, human
HL-60(TB) = assay: NCI60 in vitro screen, Leukemia; type: cell-based, human
MDA-MB-231/ATCC = assay: NCI60 in vitro screen, Breast cancer; type: cell-based, human
COLO 205 = assay: NCI60 in vitro screen, Colon Cancer; type: cell-based, human
PC-3 = assay: NCI60 in vitro screen, Prostate cancer; type: cell-based, human
MCF-7 [2] = conditions: MCF-7, 10 μM
SK-MEL-28 = assay: NCI60 in vitro screen, Melanoma; type: cell-based, human
A549/ATCC = assay: NCI60 in vitro screen, Non-Small Cell Lung Cancer; type: cell-based, human
MDA-MB-435 = assay: NCI60 in vitro screen, Melanoma; type: cell-based, human
CAKI-1 = assay: NCI60 in vitro screen, Renal cancer; type: cell-based, human
human ERβ = target: T1, human ERβ (Homo sapiens, UniProt Q92731); assay: Estrogen receptor fluorescence polarisation competitive binding assay, ERβ; conditions: competitive binding, fluorescence polarisation; read-out: ERβ IC50
T1 construct: purchased Invitrogen
T1 sequence (Q92731 whole entry): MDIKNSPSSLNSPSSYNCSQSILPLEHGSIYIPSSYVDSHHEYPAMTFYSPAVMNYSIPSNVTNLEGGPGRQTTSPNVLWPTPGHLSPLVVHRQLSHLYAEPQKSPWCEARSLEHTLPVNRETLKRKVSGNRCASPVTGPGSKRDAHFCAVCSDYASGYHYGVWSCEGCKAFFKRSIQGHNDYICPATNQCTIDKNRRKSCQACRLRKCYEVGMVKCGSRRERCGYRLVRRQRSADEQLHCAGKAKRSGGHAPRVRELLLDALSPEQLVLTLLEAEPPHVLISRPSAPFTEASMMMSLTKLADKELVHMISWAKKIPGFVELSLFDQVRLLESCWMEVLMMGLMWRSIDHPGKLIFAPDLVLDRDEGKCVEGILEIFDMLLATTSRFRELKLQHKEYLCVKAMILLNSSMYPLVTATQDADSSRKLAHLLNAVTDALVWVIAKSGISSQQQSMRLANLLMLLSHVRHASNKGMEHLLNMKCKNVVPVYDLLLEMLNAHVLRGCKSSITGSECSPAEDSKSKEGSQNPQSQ

SF295 = assay: NCI60 in vitro screen, CNS Cancer; type: cell-based, human

## CC/C(=C(\c1ccccc1)c1ccc(OCCN(C)C(=O)CCC(=O)Oc2cc(/C=C\c3cc(OC)c(OC)c(OC)c3)ccc2OC)cc1)c1ccccc1 (mixture of isomers) [Compound 16a, N-{2-[4-((Z)-1,2-Diphenylbut-1-enyl)phenoxy]ethyl}-N-methylsuccinamic acid 2-methoxy-5-[(Z)-2-(3,4,5-trimethoxyphenyl)vinyl]phenyl ester]
MALME-3M; Homo sapiens, Malme-3M
  GI50: > 10000 nM
MALME-3M; MALME-3M, 10 μM
  Growth % (10^−5 M): 74.86%
NCI-H552; Homo sapiens, NCI-H552
  GI50: 19.7 nM
NCI-H552; NCI-H552, 10 μM
  Growth % (10^−5 M): −30.85 ^e %
K-562; Homo sapiens, K562, K-562
  GI50: < 10 nM
K-562; K-562, 10 μM
  Growth % (10^−5 M): 41.7%
DU-145; DU-145, 10 μM
  Growth % (10^−5 M): −36.33 ^e %
DU-145; Homo sapiens, DU-145
  GI50: 12.5 nM
CCRF-CEM; 10 μM
  Growth % (10^−5 M): 20.38%
CCRF-CEM; Homo sapiens
  GI50: 39.4 nM
UACC-257; Homo sapiens, UACC-257
  GI50: > 10000 nM
UACC-257; UACC-257, 10 μM
  Growth % (10^−5 M): 48.73%
NCI-H23; Homo sapiens, NCI-H23
  GI50: 45.9 nM
NCI-H23; NCI-H23, 10 μM
  Growth % (10^−5 M): 12.25%
SN12C; 10 μM
  Growth % (10^−5 M): 31.84%
SN12C; Homo sapiens
  GI50: 57.6 nM
NCI-H460; Homo sapiens, NCI-H460
  GI50: 29.9 nM
NCI-H460; NCI-H460, 10 μM
  Growth % (10^−5 M): −6.77 ^e %
In vitro
  CC50: > 100000 nM
MOLT-4; Homo sapiens, MOLT-4
  GI50: 39.8 nM
MOLT-4; MOLT-4, 10 μM
  Growth % (10^−5 M): 36.2%
MCF-7 [1]; MCF7
  GI50: 34.5 nM
MCF-7 [1]; MCF7, read-out: GI50 (IC50)
  IC50: 36 nM
MCF-7 [1]; MCF7, read-out: growth inhibition
  inhibition at 10 µM: 90%
MCF-7 cells
  cytotoxicity (LDH assay): 13.2%
HCT-116; HCT-116, 10 μM
  Growth % (10^−5 M): 1.61%
HCT-116; Homo sapiens, HCT-116
  GI50: 15.6 nM
HCT-116; Homo sapiens, HCT-116, one-dose, 10 μM, read-out: growth inhibition
  inhibition at 10 µM: 98%
EKVX; 10 μM
  Growth % (10^−5 M): 22.72%
EKVX; Homo sapiens
  GI50: 56.9 nM
SNB-19; Homo sapiens, SNB-19
  GI50: 36.5 nM
SNB-19; SNB-19, 10 μM
  Growth % (10^−5 M): 28.03%
SF539; Homo sapiens, SF-539, SF539
  GI50: 21.3 nM
SF539; SF539, 10 μM
  Growth % (10^−5 M): −7.31 ^e %
NCI-H226; Homo sapiens, NCI-H226
  GI50: 47.1 nM
NCI-H226; NCI-H226, 10 μM
  Growth % (10^−5 M): 11.59%
TK-10; Homo sapiens, TK-10
  GI50: 589 nM
TK-10; TK-10, 10 μM
  Growth % (10^−5 M): 33.77%
IGROV1; Homo sapiens, IGROV-1, IGROV1
  GI50: 47.3 nM
IGROV1; IGROV1, 10 μM
  Growth % (10^−5 M): −26.34 ^e %
HL-60(TB); 10 μM
  Growth % (10^−5 M): 28.19%
HL-60(TB); Homo sapiens
  GI50: 14.5 nM
MDA-MB-231/ATCC; 10 μM
  Growth % (10^−5 M): 23.19%
MDA-MB-231/ATCC; Homo sapiens
  GI50: 28.6 nM
COLO 205; COLO 205, 10 μM
  Growth % (10^−5 M): −55 ^e %
COLO 205; Homo sapiens, COLO 205
  GI50: 378 nM
PC-3; Homo sapiens, PC-3
  GI50: 12 nM
PC-3; PC-3, 10 μM
  Growth % (10^−5 M): 19.1%
MCF-7 [2]
  Growth % (10^−5 M): 10.06%
SK-MEL-28; Homo sapiens, SK-MEL-28
  GI50: < 10 nM
SK-MEL-28; SK-MEL-28, 10 μM
  Growth % (10^−5 M): 89.31%
A549/ATCC; 10 μM
  Growth % (10^−5 M): 18.56%
A549/ATCC; Homo sapiens
  GI50: 59 nM
MDA-MB-435; Homo sapiens, MDA-MB-435
  GI50: < 10 nM
MDA-MB-435; MDA-MB-435, 10 μM
  Growth % (10^−5 M): −16.61 ^e %
CAKI-1; CAKI-1, 10 μM
  Growth % (10^−5 M): 23.4%
CAKI-1; Homo sapiens, CAKI-1
  GI50: 30.7 nM
Human ERβ
  IC50: 22.7 nM
SF295; Homo sapiens, SF-295, SF295
  GI50: 20.8 nM
SF295; Homo sapiens, SF-295, one-dose, 10 μM, read-out: growth inhibition
  inhibition at 10 µM: 94%
SF295; SF295, 10 μM
  Growth % (10^−5 M): 6.21%
